Data set [1] has as its system normal uninjured rat carotid arteries (medial and adventitial cell populations). As to the kind of experiment: In vivo rat carotid artery acellularity after PDT. Set-up: species or system Sprague Dawley rats. To be noted: for Max % rat Artery Accelularity: Table 3. In short, it runs like this:
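Metallated photosensitizers light-activated in normal uninjured rat left common carotid via balloon catheter introduced through femoral arteriotomy under isoflurane; excitation 575 nm (Ga, Zn, Al, Sn) or 532 nm (Pt). Arteries harvested 3 days post-treatment, H&E-stained; medial and adventitial cell density assessed by light microscopy.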

The subject of data set [2] is V79 (Chinese Hamster Lung Fibroblasts) cells. As to the kind of experiment: In vitro cytotoxicity assay (light EC50, Alamar blue). It is filed as cell-based. To be noted: Table 3 porphyrins, 24 h drug incubation, 532 nm, 1.25 J/cm^2, read-out: In Vitro EC50 Light. In short, it runs like this:
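V79 cells in phenol-free 5% FBS/DMEM exposed 24 h to photosensitizer at final 0.01–5.0 μM, six replicates, then washed and light-treated, with a dark plate as control. Survival by Alamar blue after 24 h dark incubation, read at 570/600 nm.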

The subject of data set [3] is normal skin of CD Hairless male rats. In kind it is in vivo, rat. In short, it runs like this:
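Liposomal egg yolk phospholipid photosensitizer given as single i.v. tail-vein bolus at 1, 1.5 and 2 μmol/kg; skin spots irradiated with 532 nm laser (150 mW/cm^2, 150J, 1 cm) at 1, 6, 24, 48, 96 hrs post injection. Value is time of last observed skin response spot.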

The mark [4] stands for this setting: drug dose 1 μMol, 50 J/cm^2, 3 days post treatment.
Where [5] appears, read: Table 3, time of last skin spot observed post injection, 1 μmol, 532 nm laser.

Read-outs that look alike come from different tables or passages of the source.

In general, EC50 refers to the concentration at which the effect is half-maximal. For `C=CC1=C(C)c2cc3[n-]c(cc4nc(cc5[n-]c(cc1n2)c(C)c5CCC(=O)OC)C(CCC(=O)OC)=C4C)c(C)c3C=C.[Cl-].[Ga+3]` [Example 42, Gallium Chloride Protoporphyrin Dimethyl Ester], the “Max % rat Artery Accelularity” value in data set [1] (setting [4]) is 70%. In data set [2], the EC50 turned out to be 480 nM. In addition, the “Normal skin Response (1 μmol)” value in data set [3] (setting [5]) is 6 h.

As to `CCC1=C(C)C2=NC1=Cc1c(C)c(CC)c3[n]1[Sn]([Cl])([Cl])[n]1c(c(C)c(CCCC(=O)OC)c1=CC1=NC(=C3)C(C)=C1CCCC(=O)OC)=C2` [Example 45, Tin(IV) Dichloride 8,13-diethyl-3,7,12,17-tetramethylporphyrin-2,18-di(butanoic acid methyl ester)], in data set [1] (setting [4]), the “Max % rat Artery Accelularity” value is listed as 20%. In data set [2], the EC50 worked out at 1500 nM. Also, in data set [3] (setting [5]), the “Normal skin Response (1 μmol)” value is 24 h.

As for `CCCOC(=O)CCCC1=C(C)C2=Cc3c(CC)c(C)c4[n]3[Ga]([Cl])[n]3c(c(C)c(CCCC(=O)OCCC)c3=CC1=N2)=CC1=NC(=C4)C(CC)=C1C` [Example 50, Gallium 8,13-diethyl-3,7,12,17-tetramethylporphyrin-2,18-di(butanoic acid propyl ester)], the “Max % rat Artery Accelularity” value in data set [1] (setting [4]) was 80%. In data set [2], the EC50 worked out at 400 nM. Also, in data set [3] (setting [5]), the “Normal skin Response (1 μmol)” value came out at 48 h.

Consider `CCOC(=O)CCCCC1=C(C)C2=Cc3c(CC)c(C)c4[n]3[Sn]([Cl])([Cl])[n]3c(c(C)c(CCCCC(=O)OCC)c3=CC1=N2)=CC1=NC(=C4)C(CC)=C1C` [Example 51, Tin(IV)dichloride 8,13-diethyl-3,7,12,17-tetramethylporphyrin-2,18-di(pentanoic acid ethyl ester)], for which, in data set [1] (setting [4]), the “Max % rat Artery Accelularity” value stood at 20%. Also, the EC50 in data set [2] is 1700 nM. Also, the “Normal skin Response (1 μmol)” value in data set [3] (rat, in vivo) came out at 24 h.

Take `CCOC(=O)CCCCC1=C(C)c2cc3[n-]c(cc4nc(cc5[n-]c(cc1n2)c(CCCCC(=O)OCC)c5C)C(C)=C4CC)c(C)c3CC.[Cl-].[In+3]` [Example 52, Indium Chloride 8,13-diethyl-3,7,12,17-tetramethylporphyrin-2,18-di(pentanoic acid ethyl ester)]: the “Max % rat Artery Accelularity” value in data set [1] (setting [4]) is recorded as 75%. For the same compound, the EC50 in data set [2] came to 50 nM. In data set [3] (rat, in vivo), the “Normal skin Response (1 μmol)” value is 48 h.

In the case of `CCOC(=O)CCCCC1=C(C)C2=Cc3c(CC)c(C)c4[n]3[Al-2]35([Cl])[n]6c(c(C)c(CCCCC(=O)OCC)c6=CC1=[N+]23)=CC1=[N+]5C(=C4)C(CC)=C1C` [Example 54, Aluminum Chloride 8,13-diethyl-3,7,12,17-tetramethylporphyrin-2,18-di(pentanoic acid ethyl ester)], the “Max % rat Artery Accelularity” value in data set [1] (setting [4]) is 0%. Further, in data set [2], the EC50 was found to be 4000 nM. Besides, the “Normal skin Response (1 μmol)” value in data set [3] (rat, in vivo) worked out at 24 h.

Consider `CCOC(=O)CCCCC1=C(C)C2=Cc3c(CC)c(C)c4[n]3[Zn-2]35[n]6c(c(C)c(CCCCC(=O)OCC)c6=CC1=[N+]23)=CC1=[N+]5C(=C4)C(CC)=C1C` (centres unmarked) [Example 55, Zinc 8,13-diethyl-3,7,12,17-tetramethylporphyrin-2,18-di(pentanoic acid ethyl ester)], for which the “Max % rat Artery Accelularity” value in data set [1] (setting [4]) is listed as 0%. For the same compound, in data set [2], the EC50 was 4000 nM. Moreover, in data set [3] (rat, in vivo), the “Normal skin Response (1 μmol)” value turned out to be 24 h.

Regarding `CCCOC(=O)CCCCC1=C(C)C2=Cc3c(CC)c(C)c4[n]3[Ga-2]35([Cl])[n]6c(c(C)c(CCCCC(=O)OCCC)c6=CC1=[N+]23)=CC1=[N+]5C(=C4)C(CC)=C1C` [Example 56, Gallium Chloride 8,13-diethyl-3,7,12,17-tetramethylporphyrin-2,18-di(pentanoic acid propyl ester)], in data set [1] (setting [4]), the “Max % rat Artery Accelularity” value came out at 75%. In addition, the EC50 in data set [2] was 400 nM. The “Normal skin Response (1 μmol)” value in data set [3] (rat, in vivo) amounted to 24 h.

On to `CCC1=C(C)c2cc3[n-]c(cc4nc(cc5[n-]c(cc1n2)c(C)c5CC)C(C)=C4CCCCC(=O)OC)c(CCCCC(=O)OC)c3C.[Cl-].[Ga+3]` [Example 57, Gallium Chloride 8,13-diethyl-3,7,12,17-tetramethylporphyrin-2,18-di(pentanoic acid methyl ester)], for which the “Max % rat Artery Accelularity” value in data set [1] (setting [4]) came to 80%. The “acellularity (rat artery)” value in data set [1] (text b234, 1 μmol/Kg (printed 1 mol/Kg for 57)) is 80%. Moreover, the EC50 in data set [2] came out at 460 nM. Moreover, in data set [3] (rat, in vivo), the “Normal skin Response (1 μmol)” value stood at 6 h and the “factor of decrease of normal skin response / skin clearance time versus the parent methyl ester” value was found to be 8.

On to `CCC1=C(C)C2=[N+]3C1=Cc1c(C)c(CC)c4[n]1[Sn-2]31([Cl])([Cl])[n]3c(c(C)c(CCC(=O)NC)c3=CC3=[N+]1C(=C4)C(C)=C3CCC(=O)NC)=C2` [Example 58, Tin(IV)dichloride Mesoporphyrin N-methylamide], for which the “Max % rat Artery Accelularity” value in data set [1] (setting [4]) came to 10%. In addition, the EC50 in data set [2] is 1200 nM. Moreover, the “Normal skin Response (1 μmol)” value in data set [3] (rat, in vivo) worked out at 24 h.

As to `CCC1=C(C)C2=[N+]3C1=Cc1c(C)c(CC)c4[n]1[In-2]31([Cl])[n]3c(c(C)c(CCC(=O)NC)c3=CC3=[N+]1C(=C4)C(C)=C3CCC(=O)NC)=C2` [Example 59, Indium Chloride Mesoporphyrin N-methylamide], in data set [1] (setting [4]), the “Max % rat Artery Accelularity” value is on record as 60%. Also, in data set [2], the EC50 is 170 nM. Moreover, in data set [3] (rat, in vivo), the “Normal skin Response (1 μmol)” value stood at 48 h.

As for `CCC1=C(C)C2=[N+]3C1=Cc1c(C)c(CC)c4[n]1[Pt-2]31[n]3c(c(C)c(CCC(=O)NC)c3=CC3=[N+]1C(=C4)C(C)=C3CCC(=O)NC)=C2` (centres unmarked) [Example 60, Platinum Mesoporphyrin N-methylamide], in data set [1] (setting [4]), the “Max % rat Artery Accelularity” value is 25%. The EC50 in data set [2] is 120 nM. Moreover, the “Normal skin Response (1 μmol)” value in data set [3] (rat, in vivo) turned out to be 96 h.

With `CCC1=C(C)C2=[N+]3C1=Cc1c(C)c(CC)c4[n]1[Zn-2]31[n]3c(c(C)c(CCC(=O)N(CC)CC)c3=CC3=[N+]1C(=C4)C(C)=C3CCC(=O)N(CC)CC)=C2` (centres unmarked) [Example 62, Zinc Mesoporphyrin N,N-diethylamide], the “Max % rat Artery Accelularity” value in data set [1] (setting [4]) turned out to be 0%. Besides, the EC50 in data set [2] came out at 4000 nM. Also, the “Normal skin Response (1 μmol)” value in data set [3] (rat, in vivo) amounted to 24 h.

On to `CCC1=C(C)c2cc3[n-]c(cc4nc(cc5[n-]c(cc1n2)c(C)c5CC)C(C)=C4CCCO)c(CCCO)c3C.[Cl-].[In+3]` [Example 72, Indium Chloride 8,13-diethyl-3,7,12,17-tetramethylporphyrin-2,18-di(3′-hydroxypropyl)], for which, in data set [1] (drug dose 0.5 μMol), the “Max % rat Artery Accelularity” value is 40%. In addition, the EC50 in data set [2] amounted to 40 nM. Moreover, the “Normal skin Response (1 μmol)” value in data set [3] (rat, in vivo) turned out to be 96 h.

In the case of `CCC1=C(C)c2cc3[n-]c(cc4nc(cc5[n-]c(cc1n2)c(C)c5CC)C(C)=C4CCCO)c(CCCO)c3C.[Pt+2]` [Example 74, Platinum 8,13-diethyl-3,7,12,17-tetramethylporphryin-2,18-di(3′-hydroxypropyl)], in data set [1] (setting [4]), the “Max % rat Artery Accelularity” value worked out at 25%. The EC50 in data set [2] was determined as 100 nM. In data set [3] (rat, in vivo), the “Normal skin Response (1 μmol)” value came out at 24 h.

Consider `CCC1=C(C)c2cc3[n-]c(cc4nc(cc5[n-]c(cc1n2)c(C)c5CC)C(C)=C4CCCOC)c(CCCOC)c3C.[Cl-].[In+3]` [Example 75, Indium Chloride 8,13-diethyl-3,7,12,17-tetramethylporphyrin-2,18-di(3′-methoxypropyl)], for which the “Max % rat Artery Accelularity” value in data set [1] (setting [4]) was found to be 75%. The EC50 in data set [2] turned out to be 60 nM. The “Normal skin Response (1 μmol)” value in data set [3] (rat, in vivo) was found to be 96 h.

Source of the values: patent US6827926B2, “Metallotetrapyrrolic photosensitizing agents for use in photodynamic therapy” (Miravant Pharmaceuticals, Inc., priority 2001, dated 2004).
